From publication PMC7865655, “Click Conjugation of Boron Dipyrromethene (BODIPY) Fluorophores to EGFR-Targeting Linear and Cyclic Peptides” (Molecules, 2021)

How the values were obtained:
[1] = system: extracellular domain of EGFR; details: cited from earlier work; for affinity for EGFR (in words): binding to domain I of the extracellular domain of EGFR
Text: (§1) We have previously reported the conjugation of BODIPYs to the EGFR-L1 peptide via traditional amidation reactions, and nucleophilic additions to isothiocyanato-functionalized fluorophores. Herein we report the use of click chemistry for conjugation of two EGFR-L1-derived peptides bearing an azide N-terminus (cycloL1.1 and L1.5) to alkynyl-functionalized BODIPYs. […] In previous work, we reported the conjugation of this peptide to a porphyrin [19], phthalocyanine, and BODIPY dyes, using either traditional amidation methodologies or nucleophilic addition to isothiocyanato-functionalized fluorophores. […] In order ...

HT-29 cells = assay: Competitive binding of conjugate 5 with cycloL1.1, BODIPY fluorescence; type: cell-based; details: HT-29 (~78% EGFR expression); conjugate 5 at 50 μM, cyclo(K(N3)larllt) 0.25 to 100 μM, 45 min, 37 °C, PBS; ex 614 / em 648 nm; triplicate
Method: In these studies, HT-29 (~78% EGFR expression), DLD-1 (~40% EGFR expression), and LOVO (~6% EGFR expression) were used.
Cells HT-29 (~78% EGFR) DLD-1 (~37% EGFR) and LOVO (~6% EGFR) with high, moderate, and low EGFR expressions, respectively, were used in these studies. About ten thousand cells of each cell line were coated in a 96 well clear bottom tissue culture black plate and incubated overnight at 37 °C with 5% CO2. […] PBS was used for dilution of compounds. The plate was then covered in aluminum foil and incubated at 37 °C with 5% CO2. After 45 min, each well was washed twice with 100 μL of PBS, and fluorescence was determined with a microplate reader using an excitation wavelength of 614 nm and an emission wavelength of 648 nm. Autofluorescence values were subtracted from each well. A plot of concentrations vs. relative fluorescence was plotted. Results in Figure 4 are expressed as ±S.E.

[2] = cited from earlier work
Text: as §1

HEp2 cells [3] = assay: Phototoxicity (~1 J·cm^−2), CellTiter Blue assay; type: cell-based, human; details: up to 100 µM, light dose ~1 J·cm^−2, CellTiter Blue
Method: In addition to dark toxicity, phototoxicity was assessed for the BODIPYs and their conjugates, under a low light dose of ~1 J·cm^−2 in human carcinoma HEp2 cells using the CTB assay to determine cell viability. Dose-dependent cell survival curves of each compound over the incubation period of 24 h are shown in Figure S20 (Supporting Information). […] Nevertheless, all conjugates are considered to have low phototoxicity in HEp2 cells at the low light dose used in this study.
(§2) For cellular studies, commercially available reagents and culture media were purchased from Life Technologies (Carlsbad, CA, USA) and human carcinoma HEp2 (ATCC CCL-23) cells were purchased from the American Type Culture Collection (ATCC) (Manassas, Virginia, USA). HEp2 cells were cultured and maintained at 37 °C under 5% CO2 and 95% humidity in minimum essential media (MEM) supplemented with 10% fetal bovine serum (FBS) and 1% penicillin-streptomycin (P/S).
HEp2 cells were exposed to working solutions of each compound up to 100 µM (0, 3.125, 6.25, 12.5, 25, 50, and 100 µM) and incubated for 24 h (5% CO2, 95% humidity, 37 °C). The loading medium was removed and the cells were washed with PBS solution. […] Cell viability was assessed as described above.

HEp2 cells [4] = assay: Dark cytotoxicity, CellTiter Blue assay; type: cell-based, human; details: 24 h incubation, up to 200 µM, darkness
Method: The dark toxicity of all compounds was determined in HEp2 cells at concentrations up to 200 µM, using a CellTiter Blue (CTB) assay to determine cell viability. BODIPYs 1 and 2 (lacking peptide) were included in this study for comparison purposes. […] This might be a result of the presence of the indole group, since it is a known pharmacophore and the basis of many drugs, such as indomethacin [44, 49].
as §2
Stock solutions (32 mM) for compounds 1, 2, 3, 4, and 5 were prepared using 100% DMSO as the solvent. […] Following the incubation period, cell viability was assessed by determining fluorescence intensity at 570/615 nm using a BMG FLUOstar Optima microplate reader (BMG Labtech, Cary, NC, USA). The fluorescence intensity was normalized to 100% for untreated cells and the results are expressed as a percentage of viable cells.

LARLLT [EGFR-L1, EGFR-targeting peptide ligand reported in 2009 by Song et al, reference compound]
affinity for the extracellular domain of EGFR (in words) ([1]; both in vitro and in vivo): high affinity

CC(C)C[C@H]1NC(=O)[C@H](CCCCN=[N+]=[N-])NC(=O)[C@@H]([C@H](C)O)NC(=O)[C@@H](CC(C)C)NC(=O)[C@@H](CC(C)C)NC(=O)[C@@H](CCCNC(=N)N)NC(=O)[C@@H](C)NC1=O [cycloL1.1, cyclo(K(N3)larllt)]
competitive binding: change of BODIPY fluorescence intensity with added cyclic peptide (HT-29 cells): able to replace conjugate 5 competitively
affinity for EGFR (in words) [1]: high affinity
stability in human serum (in words) [2]: enhanced stability in human serum

CCC1=C(C)C2=C(c3ccc(OCc4cn(CCCC[C@H](N)C(=O)N[C@@H](CC(C)C)C(=O)N[C@@H](C)C(=O)N[C@@H](CCCNC(=N)N)C(=O)N[C@@H](CC(C)C)C(=O)N[C@@H](CC(C)C)C(=O)N[C@H](C(N)=O)[C@@H](C)O)nn4)cc3)c3c(C)c(CC)c(C)n3[B-](F)(F)[N+]2=C1C [Conjugate 3, 1,3,5,7-tetramethyl-2,6-diethyl-8-(4-phenoxymethyltriazole K(N3)LARLLT)-BODIPY]
phototoxicity, ranking in words (HEp2 cells [3]): least toxic
dark toxicity, ranking in words (HEp2 cells [4]): least toxic

K(N3)LARLLT [Conjugate L1.5, linear EGFR-L1-derived azido peptide]
affinity for EGFR (in words) [1]: increased affinity for EGFR compared to the parent peptide
stability in human serum (in words) [2]: enhanced stability in human serum
